Results from publication PMC9234962, “Optimization of Peptide Linker-Based Fluorescent Ligands for the Histamine H1 Receptor” (Journal of Medicinal Chemistry, 2022).
Square brackets hold non-standard residues; d marks the D form. Peptide text beside a SMILES is read from it. * marks the point of attachment. X1 = O=C(COc1ccc(/C=C/C2=[N+]3C(=Cc4ccc(-c5cccs5)n4[B-]3(F)F)C=C2)cc1)*; Propanoyl(3-Pip(4-O-2-BnPh)) = O=C(CCN1CCC(Oc2ccccc2Cc2ccccc2)CC1)*; βAla = NCCC(=O)O

Legend:
[1] = target: T1, Nluc-H1R (Homo sapiens, UniProt P35367); experiment: NanoBRET saturation binding assay on Nluc-H1R expressing HEK293T cells; set-up: expressed in transfected cells; conditions: saturation binding curves, whole HEK293T cells; for pKD: non-specific with 10 μM mepyramine, mean ± SEM
T1 sequence (P35367 whole entry): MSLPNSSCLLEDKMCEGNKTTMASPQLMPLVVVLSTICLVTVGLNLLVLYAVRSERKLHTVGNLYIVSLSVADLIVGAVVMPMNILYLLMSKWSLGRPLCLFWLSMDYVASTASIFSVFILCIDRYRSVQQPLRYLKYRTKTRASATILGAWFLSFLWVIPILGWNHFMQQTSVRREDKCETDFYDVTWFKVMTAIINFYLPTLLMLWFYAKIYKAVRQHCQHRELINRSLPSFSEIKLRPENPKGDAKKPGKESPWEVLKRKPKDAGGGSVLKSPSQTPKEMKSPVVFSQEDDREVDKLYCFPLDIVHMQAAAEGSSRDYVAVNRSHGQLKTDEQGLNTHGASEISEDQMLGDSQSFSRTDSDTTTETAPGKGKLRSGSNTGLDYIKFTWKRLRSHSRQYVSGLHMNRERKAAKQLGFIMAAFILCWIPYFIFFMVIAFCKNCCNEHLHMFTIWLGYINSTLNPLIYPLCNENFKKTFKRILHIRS
Description: Total and non-specific saturation binding curves from NanoBRET saturation binding assay were fitted simultaneously using eq 1: [drawing 4] 1 where Bmax is the maximal specific binding, [B] is the concentration of fluorescent ligand in nM, KD is the equilibrium dissociation constant in nM, M is the slope of the non-specific component, and C is the intercept with the Y axis.

[2] = target: T1, Nluc-H1R; experiment: NanoBRET competition binding assay (displacement of 1) on Nluc-H1R expressing HEK293T cells; conditions: for Ki / pKi: displacement of 1 (25 nM, KD = 8 nM), whole HEK293T cells, Cheng–Prusoff; for pKi/pKD (H1R): supplementary CSV, unlabeled congeners (pKi); for pKi: mean ± SEM, three experiments

Ki [2] [nM]	pKi [2]	Molecule	Kd [1] [nM]	pKD [1]	pKi/pKD (H1R) [2]
		C[C@@H](O)[C@H](NC(=O)CCN1CCC(Oc2ccccc2Cc2ccccc2)CC1)C(=O)N[C@@H](CO)C(=O)N[C@@H](CC(N)=O)C(=O)NCCC(=O)N[C@@H](CCCCNC(=O)COc1ccc(/C=C/C2=[N+]3C(=Cc4ccc(-c5cccs5)n4[B-]3(F)F)C=C2)cc1)C(N)=O [Compound 31c, (S)-N1-(3-(((S)-1-Amino-6-(2-(4-((E)-2-(5,5-difluoro-7-(thiophen-2-yl)-5H-5λ^4,6λ^4-dipyrrolo[1,2-c:2’,1’-f][1,3,2]diazaborinin-3-yl)vinyl)phenoxy)acetamido)-1-oxohexan-2-yl)amino)-3-oxopropyl)-2-((S)-2-((2S,3R)-2-(3-(4-(2-benzylphenoxy)piperidin-1-yl)propanamido)-3-hydroxy-butanamido)-3-hydroxypropanamido)succinamide] ({Propanoyl(3-Pip(4-O-2-BnPh))}-TSN[βAla]K(X1)-NH2)	6	8.20 ± 0.07	
		CC[C@H](C)[C@H](NC(=O)CCN1CCC(Oc2ccccc2Cc2ccccc2)CC1)C(=O)N[C@@H](CO)C(=O)N[C@@H](CC(N)=O)C(=O)NCCC(=O)N[C@@H](CCCCNC(=O)COc1ccc(/C=C/C2=[N+]3C(=Cc4ccc(-c5cccs5)n4[B-]3(F)F)C=C2)cc1)C(N)=O [Compound 31i, (S)-N1-(3-(((S)-1-Amino-6-(2-(4-((E)-2-(5,5-difluoro-7-(thiophen-2-yl)-5H-5λ^4,6λ^4-dipyrrolo[1,2-c:2’,1’-f][1,3,2]diazaborinin-3-yl)vinyl)phenoxy)acetamido)-1-oxohexan-2-yl)amino)-3-oxopropyl)-2-((S)-2-((2S,3S)-2-(3-(4-(2-benzylphenoxy)piperidin-1-yl)propanamido)-3-methylpentanamido)-3-hydroxypropanamido)succinamide] ({Propanoyl(3-Pip(4-O-2-BnPh))}-ISN[βAla]K(X1)-NH2)	5	8.33 ± 0.09	
89		(S)-N-((S)-1-(((S)-1-(((S)-1-Amino-1-oxo-3-phenylpropan-2-yl)amino)-3-(4-hydroxyphenyl)-1-oxopropan-2-yl)amino)-3-hydroxy-1-oxopropan-2-yl)-2-(3-(4-(2-benzylphenoxy)piperidin-1-yl)propanamido)-3-methylbutanamide [Compound 11a]			6.36
95	7.02 ± 0.08	CC(C)[C@H](NC(=O)CCN1CCC(Oc2ccccc2Cc2ccccc2)CC1)C(=O)N[C@@H](CO)C(=O)N[C@@H](Cc1ccc(O)cc1)C(=O)N[C@H](Cc1ccccc1)C(N)=O [Compound 10d, (S)-N-((S)-1-(((S)-1-(((R)-1-Amino-1-oxo-3-phenylpropan-2-yl)amino)-3-(4-hydroxyphenyl)-1-oxopropan-2-yl)amino)-3-hydroxy-1-oxopropan-2-yl)-2-(3-(4-(2-benzylphenoxy)piperidin-1-yl)propanamido)-3-methylbutanamide] ({Propanoyl(3-Pip(4-O-2-BnPh))}-VSY[dF]-NH2)			
692	6.16 ± 0.06	CC(C)[C@H](NC(=O)CCN1CCC(Oc2ccccc2Cc2ccccc2)CC1)C(=O)N[C@@H](Cc1cnc[nH]1)C(=O)N[C@@H](C)C(=O)N[C@H](Cc1ccccc1)C(N)=O [Compound 9g, (S)-N-((S)-1-(((S)-1-(((R)-1-Amino-1-oxo-3-phenylpropan-2-yl)amino)-1-oxopropan-2-yl)amino)-3-(1H-imidazol-5-yl)-1-oxopropan-2-yl)-2-(3-(4-(2-benzylphenoxy)piperidin-1-yl)propanamido)-3-methylbutanamide] ({Propanoyl(3-Pip(4-O-2-BnPh))}-VHA[dF]-NH2)			
158	6.80 ± 0.05	CC(C)[C@H](NC(=O)CCN1CCC(Oc2ccccc2Cc2ccccc2)CC1)C(=O)N[C@@H](CO)C(=O)NCC(=O)N[C@H](Cc1ccccc1)C(N)=O [Compound 10a, (S)-N-((S)-1-((2-(((R)-1-Amino-1-oxo-3-phenylpropan-2-yl)amino)-2-oxoethyl)amino)-3-hydroxy-1-oxopropan-2-yl)-2-(3-(4-(2-benzylphenoxy)piperidin-1-yl)propanamido)-3-methylbutanamide] ({Propanoyl(3-Pip(4-O-2-BnPh))}-VSG[dF]-NH2)			
339	6.47 ± 0.03	CC(C)[C@H](NC(=O)CCN1CCC(Oc2ccccc2Cc2ccccc2)CC1)C(=O)N[C@@H](CO)C(=O)N[C@@H](CO)C(=O)N[C@H](Cc1ccccc1)C(N)=O [Compound 10e, (S)-N-((S)-1-(((S)-1-(((R)-1-Amino-1-oxo-3-phenylpropan-2-yl)amino)-3-hydroxy-1-oxopropan-2-yl)amino)-3-hydroxy-1-oxopropan-2-yl)-2-(3-(4-(2-benzylphenoxy)piperidin-1-yl)propanamido)-3-methylbutanamide] ({Propanoyl(3-Pip(4-O-2-BnPh))}-VSS[dF]-NH2)			
174	6.76 ± 0.04	CC(C)[C@H](NC(=O)CCN1CCC(Oc2ccccc2Cc2ccccc2)CC1)C(=O)N[C@@H](CO)C(=O)N[C@@H](CC(=O)O)C(=O)N[C@H](Cc1ccccc1)C(N)=O [Compound 10i, (S)-4-(((R)-1-Amino-1-oxo-3-phenylpropan-2-yl)amino)-3-((S)-2-((S)-2-(3-(4-(2-benzylphenoxy)piperidin-1-yl)propanamido)-3-methylbutanamido)-3-hydroxypropanamido)-4-oxobutanoic Acid] ({Propanoyl(3-Pip(4-O-2-BnPh))}-VSD[dF]-NH2)			
110	6.96 ± 0.02	CC(C)[C@H](NC(=O)CCN1CCC(Oc2ccccc2Cc2ccccc2)CC1)C(=O)N[C@@H](CO)C(=O)N[C@@H](Cc1ccccc1)C(=O)N[C@H](Cc1ccccc1)C(N)=O [Compound 10c, (S)-N-((S)-1-(((S)-1-(((R)-1-Amino-1-oxo-3-phenylpropan-2-yl)amino)-1-oxo-3-phenylpropan-2-yl)amino)-3-hydroxy-1-oxopropan-2-yl)-2-(3-(4-(2-benzylphenoxy)piperidin-1-yl)propanamido)-3-methylbutanamide] ({Propanoyl(3-Pip(4-O-2-BnPh))}-VSF[dF]-NH2)			
126	6.90 ± 0.04	CC(C)[C@H](NC(=O)CCN1CCC(Oc2ccccc2Cc2ccccc2)CC1)C(=O)N[C@@H](CO)C(=O)N[C@@H](Cc1cnc[nH]1)C(=O)N[C@H](Cc1ccccc1)C(N)=O [Compound 10g, (S)-N-((S)-1-(((S)-1-(((R)-1-Amino-1-oxo-3-phenylpropan-2-yl)amino)-3-(1H-imidazol-4-yl)-1-oxopropan-2-yl)amino)-3-hydroxy-1-oxopropan-2-yl)-2-(3-(4-(2-benzylphenoxy)piperidin-1-yl)propanamido)-3-methylbutanamide] ({Propanoyl(3-Pip(4-O-2-BnPh))}-VSH[dF]-NH2)			
158	6.80 ± 0.12	CC(C)[C@H](NC(=O)CCN1CCC(Oc2ccccc2Cc2ccccc2)CC1)C(=O)N[C@@H](C)C(=O)N[C@@H](C)C(=O)N[C@H](Cc1ccccc1)C(N)=O [Compound 8c, (S)-N-((S)-1-(((S)-1-(((R)-1-Amino-1-oxo-3-phenylpropan-2-yl)amino)-1-oxopropan-2-yl)amino)-1-oxopropan-2-yl)-2-(3-(4-(2-benzylphenoxy)piperidin-1-yl)propanamido)-3-methylbutanamide] ({Propanoyl(3-Pip(4-O-2-BnPh))}-VAA[dF]-NH2)			
186	6.73 ± 0.05	CC(C)[C@H](NC(=O)CCN1CCC(Oc2ccccc2Cc2ccccc2)CC1)C(=O)N[C@@H](CO)C(=O)N[C@@H](CCCCN)C(=O)N[C@H](Cc1ccccc1)C(N)=O [Compound 10h, (S)-6-Amino-N-((R)-1-amino-1-oxo-3-phenylpropan-2-yl)-2-((S)-2-((S)-2-(3-(4-(2-benzylphenoxy)piperidin-1-yl)propanamido)-3-methylbutanamido)-3-hydroxypropanamido)hexanamide] ({Propanoyl(3-Pip(4-O-2-BnPh))}-VSK[dF]-NH2)			
832	6.08 ± 0.03	CC(C)[C@H](NC(=O)CCN1CCC(Oc2ccccc2Cc2ccccc2)CC1)C(=O)N[C@@H](CC(N)=O)C(=O)N[C@@H](C)C(=O)N[C@H](Cc1ccccc1)C(N)=O [Compound 9f, (S)-N1-((S)-1-(((R)-1-Amino-1-oxo-3-phenylpropan-2-yl)amino)-1-oxopropan-2-yl)-2-((S)-2-(3-(4-(2-benzylphenoxy)piperidin-1-yl)propanamido)-3-methylbutanamido)succinamide] ({Propanoyl(3-Pip(4-O-2-BnPh))}-VNA[dF]-NH2)			
562	6.25 ± 0.20	C[C@H](NC(=O)[C@H](C)NC(=O)[C@H](CC(N)=O)NC(=O)CCN1CCC(Oc2ccccc2Cc2ccccc2)CC1)C(=O)N[C@H](Cc1ccccc1)C(N)=O [Compound 8g, (S)-N-((S)-1-(((S)-1-(((R)-1-Amino-1-oxo-3-phenylpropan-2-yl)amino)-1-oxopropan-2-yl)amino)-1-oxopropan-2-yl)-2-(3-(4-(2-benzylphenoxy)piperidin-1-yl)-propanamido)succinamide] ({Propanoyl(3-Pip(4-O-2-BnPh))}-NAA[dF]-NH2)			

Molecule	Ki [2] [nM]	pKi [2]	Kd [1] [nM]	pKD [1]	pKi/pKD (H1R) [2]
(S)-N1-((S)-1-Amino-1-oxo-3-phenylpropan-2-yl)-2-((S)-2-((S)-2-(3-(4-(2-benzylphenoxy)piperidin-1-yl)propanamido)-3-methylbutanamido)-3-hydroxypropanamido)succinimide [Compound 11b]	437	6.36 ± 0.22			7.05
